Test results reported in ChEMBL document CHEMBL1141354, “Isolation and structures of erylosides from the Carribean sponge Erylus goffrilleri” (J Nat Prod, 2007).
pIC50: −log10 of the molar value.

Tested on: Ehrlich
Assay: Cytotoxicity against albino mouse Ehrlich carcinoma cells after 1 hr
Assay type: functional, cell-based

Row | Compound | pIC50
1 | CC(=O)OC(C)(CC[C@@H](C)C1CC[C@@]2(C(=O)O)C3=C(CC[C@]12C)[C@@]1(C)CC[C@H](O[C@@H]2O[C@H](CO)[C@H](O)[C@H](O)[C@H]2O)C(C)(C)[C@@H]1CC3)C(C)C (stereo partly specified) [ERYLOSIDE S] | 4.70
2 | C[C@H](CCC(C)(O)C(C)(C)C)C1CC[C@]23C(=O)O[C@]4(CC[C@]12C)C3=CC[C@H]1C(C)(C)[C@@H](O[C@@H]2O[C@H](CO)[C@H](O)[C@H](O)[C@H]2O)CC[C@@]14C (stereo partly specified) [ERYLOSIDE T] | 4.70
3 | CC(=O)N[C@H]1[C@H](O[C@H]2[C@H](O[C@H]3CC[C@]4(C)C5=C(CC[C@H]4C3(C)C)[C@]3(C(=O)O)CCC([C@H](C)CCC(C)(OC(C)=O)C(C)C)[C@@]3(C)CC5)O[C@H](CO)[C@H](O)[C@@H]2O)O[C@H](CO)[C@@H](O)[C@@H]1O (stereo partly specified) [ERYLOSIDE F6] | 4.70
4 | C[C@H](CCC(C)(O)C(C)(C)C)C1CC[C@@]2(C(=O)O)C3=C(CC[C@]12C)[C@@]1(C)CC[C@H](O[C@@H]2O[C@H](CO)[C@H](O)[C@H](O[C@@H]4O[C@H](CO)[C@@H](O)[C@H](O)[C@H]4O)[C@H]2O)C(C)(C)[C@@H]1CC3 (stereo partly specified) [ERYLOSIDE F7] | 4.70
5 | C[C@H](CCC(C)(O)C(C)(C)C)C1CC[C@@]2(C(=O)O)C3=C(CC[C@]12C)[C@@]1(C)CC[C@H](O[C@@H]2OC[C@H](O)[C@H](O[C@@H]4OC[C@@H](O)[C@H](O)[C@H]4O)[C@H]2O[C@@H]2O[C@H](CO)[C@H](O)[C@H](O)[C@H]2O)C(C)(C)[C@@H]1CC3 (stereo partly specified) [ERYLOSIDE V] | 4.70
6 | C[C@H](CCC(C)(O)C(C)(C)C)C1CC[C@@]2(C(=O)O)C3=C(CC[C@]12C)[C@@]1(C)CC[C@H](O[C@@H]2O[C@H](CO)[C@H](O)[C@H](O)[C@H]2O)C(C)(C)[C@@H]1CC3 (stereo partly specified) [ERYLOSIDE R] | 4.70
